One compound from patent publication EP0466038A1, “Water-dispersible polyene antifungal complexes” (priority 1990, dated 1992) can be followed below.

The nature of this data set: Serum concentration of amphotericin B in rabbits after rectal administration of suppositories (HPLC). The settings on record: rabbit, in vivo, 10 mg/kg. How it is done:
The base Witepsol H-15 was melted at 45° C in a temperature-controlled bath. Equal portions of amphotericin B and dipotassium glycyrrhizinate were added and the mixture was quickly poured into suppository molds and allowed to solidify at room temperature. The target potency was 20 mg amphotericin B/g suppository.
This procedure was repeated with ratios of 1:4 and 1:9 w/w amphotericin B:dispotassium glycyrrhizinate.
These suppositories were tested on white male rabbits weighing from 2.6 to 3.2 kg that received water freely but otherwise fasted for 24 hours prior to administration. Amphotericin B was dosed in 10 mg (activity)/kg and positioned about 2 cm into the rectum. Blood samples of about 1.5 ml were collected from an ear vein of each rabbit at appropriate intervals and evaluated according to procedures in Nilsson-Ehle et al., "Quantitation of amphotericin B with use of High-Pressure Liquid Chromatography," J. Infectious Diseases, Vol. 135, No. 3 (1977).

In turn, `C[C@@H]1[C@H](O)[C@@H](C)/C=C/C=C/C=C/C=C/C=C/C=C/C=C/[C@H](O[C@@H]2O[C@H](C)[C@@H](O)[C@H](N)[C@@H]2O)C[C@@H]2O[C@](O)(C[C@@H](O)C[C@@H](O)[C@H](O)CC[C@@H](O)C[C@@H](O)CC(=O)O[C@H]1C)C[C@H](O)[C@H]2C(=O)O` [Amph., amphotericin B] returned a concentration at 1 h of 1 ng/mL, a concentration at 3 h of 2.3 ng/mL, a concentration at 5 h of 1.5 ng/mL and a concentration at 7 h of 1 ng/mL. The concentration at 9 h is 3.3 ng/mL, the concentration at 11 h was determined as 2.7 ng/mL and the concentration at 24 h was 1.3 ng/mL.
